Laboratory results published in BindingDB's records for doi:10.1016/s0028-3908(96)00171-2 (Smithkline Beecham Pharmaceuticals, 1997).

Molecular target: 5-hydroxytryptamine receptor 6 (Homo sapiens, UniProt P50406)
Sequence (P50406 whole entry): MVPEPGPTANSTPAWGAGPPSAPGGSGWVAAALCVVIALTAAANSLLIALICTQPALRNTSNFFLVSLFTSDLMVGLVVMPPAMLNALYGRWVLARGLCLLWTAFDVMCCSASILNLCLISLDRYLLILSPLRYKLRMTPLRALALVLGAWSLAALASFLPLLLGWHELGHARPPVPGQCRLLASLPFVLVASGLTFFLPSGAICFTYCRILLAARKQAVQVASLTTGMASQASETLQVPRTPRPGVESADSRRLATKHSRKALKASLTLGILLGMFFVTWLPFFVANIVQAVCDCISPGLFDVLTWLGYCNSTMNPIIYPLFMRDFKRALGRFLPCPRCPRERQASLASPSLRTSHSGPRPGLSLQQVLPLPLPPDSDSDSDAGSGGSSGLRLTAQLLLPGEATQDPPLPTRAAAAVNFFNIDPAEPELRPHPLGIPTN

CC(N)Cc1c[nH]c2ccc(OCc3cccs3)cc12 (stereo unspecified) [NSC_5311036]
Ki: 398 nM
